Laboratory results from US20250136581A1, “SUBSTITUTED TRIAZOLE DERIVATIVE, PREPARATION METHOD THEREFOR, PHARMACEUTICAL COMPOSITION THEREOF, AND USE THEREOF” (SHANGHAI SIMR BIOTECHNOLOGY CO., LTD., priority 2021, published 2025).

Molecular target: human α5β3γ2 receptors (α5-GABAA receptor) (Homo sapiens (Human), UniProt P18507+P31644)
Assay: 3H-flunitrazepam competition binding, human α5β3γ2 GABAA receptor
Conditions: HEK293 cell membranes, 1 nM 3H-flunitrazepam; read-out: α5-GABAAR Ki
Experimental: The affinity of the compound to each subtype of GABAA receptor was determined by competing for the binding of ^3H-flunitrazepam to HEK293 cells stably expressing human α1β3γ2, α2β3γ2, α3β3γ2, and α5β3γ2 receptors.
The cells were suspended in 50 mM Tris-HCl buffer (pH=7.4), homogenized 10 times on ice with a homogenizer for 20 seconds, and centrifuged at 1000 g for 10 minutes at 4° C. The supernatant was collected, and the above steps were repeated. The supernatant was centrifuged at 4° C. (33800 g; Thermo, rotor: A27-8×50) for 60 minutes, and the precipitate was resuspended in Tris buffer (50 mM Tris-HCl, 10 mM MgCl2, 0.5 mM EDTA, 10% glycerol). Protein was measured (BCA method, Pierce), and 1 mL aliquots were prepared and stored at −80° C.
The radioligand competition binding assay was performed in a 200 μL system (96-well plate) containing 100 μL of cell membrane. The concentration of ^3H-flunitrazepam was 1 nM and the concentration of the test compound was in the range of […]. Flumazenil was used as a control. 1 μL of 2 mM flumazenil (final concentration […]) was added to the low signal control well (Low control, LC), and 1 μL of DMSO was added to the high signal control well (High control, HC). The final concentration of target membrane protein was […]. All test compound sample storage solutions were 10 mM. The working concentration of the samples was to dilute all the samples to 0.2 mM with DMSO, followed by 4-fold serial gradient dilutions for a total of 8 concentration gradients. The 96-well plate was sealed with a sealing film, and then incubated on a shaker at room temperature for 1 hour. At the same time, the GF/C filter plate was soaked in soaking buffer (0.3% PEI, stored at 4° C.) for at least 0.5 hours. After the binding incubation was completed, the cells were collected onto a GF/C filter plate using a cell harvester. The plate was washed four times with washing buffer (50 mM Tris-HCl, pH 7.4, stored at 4° C.). After drying in a 50° C. oven for 1 hour, the bottom of the dried GF/C filter plate was sealed. The residual radioactivity on the filter membrane was detected using liquid scintillation counting. 50 μL of scintillation fluid was added to each well, and the plate was sealed. The readings were taken using a Microbeta2. The inhibitory activity of the test sample on the binding of ^3H-flunitrazepam to GABAA receptor membrane proteins was calculated, and the IC50 of each test sample was calculated by dose-effect curve fitting (GraphPad Prism 5 software), and the Ki of the sample was calculated from the IC50, thus evaluating the binding ability of the sample to the various subtypes of GABAA receptors.

Ki | SMILES
32.5 nM | Cc1nnn(-c2ccc(CO)cc2)c1COc1ccc(N2CCNC(=O)C2)nn1 [Example 79, 4-(6-((1-(4-(hydroxymethyl)phenyl)-4-methyl-1H-1,2,3-triazol-5-yl)methoxy)pyridazin-3-yl)piperazin-2-one]
0.56 nM | Cc1cc(N2CCNC(=O)C2)nnc1OCc1c(C)nnn1-c1ccc(C(F)F)cc1 [Example 81, 4-(6-((1-(4-(Difluoromethyl)phenyl)-4-methyl-1H-1,2,3-triazol-5-yl)methoxy)-5-methylpyridazin-3-yl)piperazin-2-one]
0.63 nM | Cc1cc(OCc2c(C)nnn2-c2ccc(C(F)F)cc2)nnc1N1CCNC(=O)C1 [Example 82, 4-(6-((1-(4-(Difluoromethyl)phenyl)-4-methyl-1H-1,2,3-triazol-5-yl)methoxy)-4-methylpyridazin-3-yl)piperazin-2-one]
2.6 nM | O=C1CN(c2ccc(OCc3c(C4CC4)nnn3-c3ccc(C(F)F)cc3)nn2)CCN1 [Example 83, 4-(6-((4-Cyclopropyl-1-(4-(difluoromethyl)phenyl)-1H-1,2,3-triazol-5-yl)methoxy)pyridazin-3-yl)piperazin-2-one]
0.6 nM | Cc1nnn(-c2ccc(C(F)F)cc2)c1COc1ccc(N2CCn3cnnc3C2)nn1 [Example 84, 7-(6-((1-(4-(Difluoromethyl)phenyl)-4-methyl-1H-1,2,3-triazol-5-yl)methoxy)pyridazin-3-yl)-5,6,7,8-tetrahydro-[1,2,4]triazolo[4,3-a]pyrazine]
2.24 nM | Cc1nnn(-c2ccc(C(F)F)cc2)c1COc1ccc(N2CCCC3(COC3)C2)nn1 [Example 85, 6-(6-((1-(4-(Difluoromethyl)phenyl)-4-methyl-1H-1,2,3-triazol-5-yl)methoxy)pyridazin-3-yl)-2-oxa-6-azaspiro[3.5]nonane]
8.31 nM | Cc1nnn(-c2ccc(C(F)F)cc2)c1COc1ccc(N2CC3(CCNC3=O)C2)nn1 [Example 86, 2-(6-((1-(4-(Difluoromethyl)phenyl)-4-methyl-1H-1,2,3-triazol-5-yl)methoxy)pyridazin-3-yl)-2,6-diazaspiro[3.4]octan-5-one]
3.46 nM | Cc1nnn(-c2ccc(C(F)F)cc2)c1COc1ccc(N2CC3(CNC(=O)C3)C2)nn1 [Example 87, 2-(6-((1-(4-(Difluoromethyl)phenyl)-4-methyl-1H-1,2,3-triazol-5-yl)methoxy)pyridazin-3-yl)-2,6-diazaspiro[3.4]octan-7-one]
1.78 nM | CC(=O)NC1CCN(c2ccc(OCc3c(C)nnn3-c3ccc(C(F)F)cc3)nn2)C1 (stereo not shown) [Example 88, N-(1-(6-((1-(4-(Difluoromethyl)phenyl)-4-methyl-1H-1,2,3-triazol-5-yl)methoxy)pyridazin-3-yl)pyrrolidin-3-yl)acetamide]
1.13 nM | Cc1nnn(-c2ccc(C(F)F)cc2)c1COc1ccc(N2CC(=O)N3CCN(CC(F)(F)F)CC3C2)nn1 (stereo not shown) [Example 91, 2-(6-((1-(4-(Difluoromethyl)phenyl)-4-methyl-1H-1,2,3-triazol-5-yl)methoxy)pyridazin-3-yl)-8-(2,2,2-trifluoroethyl)octahydro-4H-pyrazino[1,2-a]pyrazin-4-one]
3.14 nM | Cc1nnn(-c2ccc(C(F)F)cc2)c1COc1ccc(N2CCN(Cc3ncccn3)C(=O)C2)nn1 [Example 93, 4-(6-((1-(4-(Difluoromethyl)phenyl)-4-methyl-1H-1,2,3-triazol-5-yl)methoxy)pyridazin-3-yl)-1-(pyrimidin-2-ylmethyl)piperazin-2-one]
44.3 nM | Cc1nnn(-c2ccc(F)cc2)c1COc1ccc(N2CCN(CC(F)(F)F)C(=O)C2)nn1 [Example 94, 4-(6-((1-(4-Fluorophenyl)-4-methyl-1H-1,2,3-triazol-5-yl)methoxy)pyridazin-3-yl)-1-(2,2,2-trifluoroethyl)piperazin-2-one]
2.14 nM | Cc1nnn(-c2ccc(C(F)F)cc2)c1COc1ccc(N2CC(C(=O)Nc3ccnn3C)C2)nn1 [Example 102, 1-(6-((1-(4-(Difluoromethyl)phenyl)-4-methyl-1H-1,2,3-triazol-5-yl)methoxy)pyridazin-3-yl)-N-(1-methyl-1H-pyrazol-5-yl)azetidine-3-carboxamide]
1.24 nM | Cc1nnn(-c2ccc(C(F)F)cc2)c1COc1ccc(N2CCOC3(CCS(=O)(=O)C3)C2)nn1 (stereo not shown) [Example 105, 9-(6-((1-(4-(Difluoromethyl)phenyl)-4-methyl-1H-1,2,3-triazol-5-yl)methoxy)pyridazin-3-yl)-6-oxa-2-thia-9-azaspiro[4.5]decane 2,2-dioxide]
7.39 nM | Cc1nnn(-c2ccc(C(F)F)cc2)c1COc1ccc(N2CCCN(S(C)(=O)=O)CC2)nn1 [Example 106, 1-(6-((1-(4-(Difluoromethyl)phenyl)-4-methyl-1H-1,2,3-triazol-5-yl)methoxy)pyridazin-3-yl)-4-(methylsulfonyl)-1,4-diazepane]
1.53 nM | Cc1nnn(-c2ccc(C(F)F)cc2)c1COc1ccc(N2CCN(CCN3CCC(F)(F)CC3)C(=O)C2)nn1 [Example 109, 4-(6-((1-(4-(Difluoromethyl)phenyl)-4-methyl-1H-1,2,3-triazol-5-yl)methoxy)pyridazin-3-yl)-1-(2-(4,4-difluoropiperidin-1-yl)ethyl)piperazin-2-one]
0.93 nM | Cc1nnn(-c2ccc(C(F)F)cc2)c1COc1ccc(N2CCN(c3cnn(C)c3)C(=O)C2)nn1 [Example 111, 4-(6-((1-(4-(Difluoromethyl)phenyl)-4-methyl-1H-1,2,3-triazol-5-yl)methoxy)pyridazin-3-yl)-1-(1-methyl-1H-pyrazol-4-yl)piperazin-2-one]
0.81 nM | Cc1nnn(-c2ccc(C(F)F)cc2)c1COc1ccc(N2CCN(c3ccn(C)n3)C(=O)C2)nn1 [Example 112, 4-(6-((1-(4-(Difluoromethyl)phenyl)-4-methyl-1H-1,2,3-triazol-5-yl)methoxy)pyridazin-3-yl)-1-(1-methyl-1H-pyrazol-3-yl)piperazin-2-one]
1.17 nM | Cc1nnn(-c2ccc(C(F)F)cc2)c1COc1ccc(N2CCN(c3cnn(C(F)F)c3)C(=O)C2)nn1 [Example 113, 1-(1-(Difluoromethyl)-1H-pyrazol-4-yl)-4-(6-((1-(4-(difluoromethyl)phenyl)-4-methyl-1H-1,2,3-triazol-5-yl)methoxy)pyridazin-3-yl)piperazin-2-one]
1.25 nM | CCNC(=O)C12CC(CN1c1ccc(OCc3c(C)nnn3-c3ccc(C(F)F)cc3)nn1)C2 [Example 115, 2-(6-((1-(4-(Difluoromethyl)phenyl)-4-methyl-1H-1,2,3-triazol-5-yl)methoxy)pyridazin-3-yl)-N-ethyl-2-azabicyclo[2.1.1]hexane-1-carboxamide]
4.87 nM | Cc1nnn(-c2ccc(C(F)F)cc2)c1COc1ccc(N2CCN3CC(=O)NC(=O)[C@@H]3C2)nn1 [Example 117, (S)-8-(6-((1-(4-(Difluoromethyl)phenyl)-4-methyl-1H-1,2,3-triazol-5-yl)methoxy)pyridazin-3-yl)hexahydro-1H-pyrazino[1,2-a]pyrazin-1,3-(2H)-dione]
1.66 nM | Cc1nnn(-c2ccc(C(F)F)cc2)c1COc1ccc(N2CCN3C(=O)NC(=O)[C@@H]3C2)nn1 [Example 118, (S)-7-(6-((1-(4-(Difluoromethyl)phenyl)-4-methyl-1H-1,2,3-triazol-5-yl)methoxy)pyridazin-3-yl)tetrahydroimidazo[1,5-a]pyrazine-1,3(2H,5H)-dione]
27.2 nM | Cc1nnn(-c2ccc(C(F)F)cc2)c1COc1ccc(N2CCN3CCCNC(=O)[C@@H]3C2)nn1 [Example 120, (S)-2-(6-((1-(4-(Difluoromethyl)phenyl)-4-methyl-1H-1,2,3-triazol-5-yl)methoxy)pyridazin-3-yl)octahydropyrazino[1,2-a][1,4]diaza-10(2H)-one]
40.1 nM | Cc1nnn(-c2ccc(F)cc2)c1COc1ccc(N2CCN3CCOC[C@@H]3C2)nn1 [Example 126, (S)-8-(6-((1-(4-Fluorophenyl)-4-methyl-1H-1,2,3-triazol-5-yl)methoxy)pyridazin-3-yl)octahydropyrazino[2,1-c][1,4]oxazine]

Same assay, conditions: α5-GABAAR Ki, HEK293 cell membranes, 1 nM 3H-flunitrazepam

SMILES | Ki
CCNC(=O)C12CC(CN(c3ccc(OCc4c(C)nnn4-c4ccc(C(F)F)cc4)nn3)C1)C2 [Example 121, 3-(6-((1-(4-(Difluoromethyl)phenyl)-4-methyl-1H-1,2,3-triazol-5-yl)methoxy)pyridazin-3-yl)-N-ethyl-3-azabicyclo[3.1.1]heptane-1-carboxamide] | 1.73 nM
